Assay results: patent US20250204541A1, “GAS PHASE TREATMENT OF PRODUCE” (priority 2022, published 2025)

Tests used:
Assay type in all cases: in vivo
[1] = test system: Penicillium digitatum (Pd); assay: Antifungal activity of vapor against Penicillium digitatum in wounded, infected mandarins; settings: for effect on Pd mold: airtight container, assessed after 6 days
Protocol: Example 4. The antifungal activity of a range of AITC vapor concentrations was tested against Pd in mandarins. All mandarins were wounded by puncturing with a screw and infected by dispensing 1000 Pd spores suspended in 10 μL of water in each wound. The fruit was then placed in an airtight container, a range of AITC volumes were disposed onto a Whatman filter paper disc, the disc was suspended in front of a battery-powered fan, and the container closed for 18 hours. The mandarins were then left at ambient temperature and high humidity for 6 days. The test groups were mandarins that were infected and untreated, and infected and treated with 62.5 μL, 125 μL, 250 μL, and 500 μL on the filter paper disc. […] FIG. 6 is a bar graph showing incidence (% infected) for the test groups.
Example 5. The antifungal activity of a range of AITC vapor exposure times was tested to determine the effects against Pd in mandarins. All samples were wounded by puncturing with a screw. Mandarins were infected by dispensing 1000 Pd spores suspended in 10 μL of water in the wound. The fruit was then placed in an airtight container, 125 μL of AITC was dispensed onto a Whatman filter paper disc, the disc suspended in front of a battery-powered fan, and the container closed for 15 minutes to 2 hours. The test groups were then left at ambient temperature, high humidity, and assessed for Pd mold after 6 days. The test groups consisted of mandarins that were: uninfected and untreated; infected and untreated; infected and treated with 0.5 g/L imazalil; infected, treated with 125 μL of AITC on the filter paper, and exposed to the vapor for 15 minutes, 30 minutes, 1 hour, and 2 hours.

[2] = test system: Colletotrichum gloeosporioides (Cg); assay: Antifungal activity of vapor against Colletotrichum gloeosporioides in avocados
Protocol: Example 7. The antifungal activity of AITC and DADS vapor against Colletotrichum gloeosporioides (Cg) was tested in avocados. All test pieces were wounded by removing the stem and infected by dispensing 1000 Cg spores suspended in 10 μL of water into the wound. The test groups consisted of avocados that were: untreated and uninfected; untreated and infected; treated by dipping in a solution of 0.1 g/L of prochloraz; exposed to the vapor of 3 mL of AITC disposed in a Petri dish; and exposed to the vapor of 3 mL of DADS disposed in a Petri dish. FIG. 9 quantifies the infection results. AITC vapor reduced the incidence of Cg mold by 97% compared to the untreated test group and 70% compared to the prochloraz treated test group. DADS vapor reduced the incidence of Cg mold by 60% compared to the untreated test group.
Example 8. The antifungal activity of a range of DADS vapor exposure times was tested against Cg in avocados. All test pieces were wounded by removing the stem and infected by dispensing 1000 Cg spores suspended in 10 μL of water into the wound. The test groups consisted of avocados that were: infected and untreated; and exposed to the vapor of 3 mL of DADS in a Petri dish for 24 hours, 48 hours, and 72 hours. FIG. 10 quantifies the infection results. Test group exposed to DADS vapor at all exposure times reduced the incidence of Cg mold compared to the untreated test group. A 24 hour DADS exposure reduced the incidence of Cg mold by 8%. A 48 hour DADS exposure reduced the incidence of Cg mold by 25%. A 72 hour DADS exposure reduced the incidence of Cg mold by 57%.
Example 9. The antifungal activity of a range of AITC and carvacrol vapor exposure times was tested against Cg in avocados. To measure the effect of the various treatments on ripening, durometer shore was taken after 7 days of incubation at ambient temperature and high humidity. All samples were wounded by removing the stem and infected by dispensing 1000 Cg spores suspended in 10 μL of water in the wound. The test groups consisted of avocados that were: infected and left untreated on the benchtop; infected and left untreated under a fume hood; exposed to the vapor of 3 mL of AITC in a Petri dish for 24 hours, 48 hours, and 72 hours; and exposed to the vapor of 3 mL of carvacrol in a Petri dish for 72 hours. FIG. 11 quantifies the infection results. […] All exposure times to AITC vapor reduced the incidence of Cg mold compared to the untreated samples. A 24 hour AITC exposure reduced the incidence of Cg mold by 90%. A 48 hour AITC exposure reduced the incidence of Cg mold by 97%. A 72 hour AITC exposure reduced the incidence of Cg mold by 83%. […]
Example 21. The antifungal activity of avocados exposed to AITC vapor and prochloraz was tested against Cg in avocados. To measure the effect of the various treatments on ripening, durometer shore was taken after 5 days of incubation at ambient temperature (about 20° C. to about 25° C.) and high humidity (about 88% relative humidity to about 93% relative humidity). All samples were wounded by removing the stem and infected by dispensing 1000 Cg spores suspended in 10 μL of water in the wound. Exposure to vapor was done by placing the avocados in an airtight container, dispensing AITC onto Whatman filter paper discs, suspending the discs in front of a battery-powered fan, closing the container and incubating the avocados for 30 minutes. After vapor exposure, the avocados were left at ambient temperature, high humidity, and assessed for Cg mold on day 5. Treatment groups consisted of avocados that were: exposed for 30 minutes to the vapor of 125 μL of AITC disposed on a filter paper disc; dipped in a solution of 0.1 g/L of prochloraz and placed to dry on a rack in front of a fan for 30 min; infected and left untreated; and uninfected and untreated. […] To prepare the 0.1 g/L of prochloraz, 10 mg of prochloraz was mixed with 10 mL of ethanol and 90 mL of water. […] A 24 hour AITC exposure reduced the incidence of Cg mold by 90%. […]

[3] = test system: Penicillium italicum (Pi); assay: Antifungal activity of vapor against Penicillium italicum in wounded, infected mandarins; settings: 72 hours vapor of 3 mL in a Petri dish
Protocol: Example 2. The antifungal activity of allyl isothiocyanate (AITC) and DADS vapor was tested against Pd and Penicillium italicum (Pi) in mandarins. All samples were wounded by puncturing with a screw. Mandarins were infected by dispensing either 1000 Pd spores or 1000 Pi spores suspended in 10 μL into the wound. The test groups consisted of mandarins that were: uninfected and untreated; uninfected and treated by dipping in a solution of 1 g/L of imazalil; infected with Pd and untreated; infected with Pd and exposed to AITC; infected with Pd and exposed to DADS; infected with Pi and untreated; infected with Pi and exposed to AITC; and infected with Pi and exposed to DADS. Exposure to AITC or DADS consisted of exposing the mandarins for 72 hours to the vapor of 3 mL of the respective compound dispensed in a Petri dish. […] DADS vapor reduced the incidence of Pd mold by 85% and Pi mold by 30% compared to the respective untreated/infected test groups. […] Both AITC and DADS were effective at preventing fungal growth. The inhibition from AITC was approximately 100%, with some changes in visible appearance.

[4] = mandarins, 72 hours vapor of 3 mL in a Petri dish

C=CCN=C=S [AITC, allyl isothiocyanate]
inhibition of fungal growth ([1]; mandarins infected with Pd, 72 hours vapor of 3 mL in a Petri dish): approximately 100% | effect on Pd mold ([1]; mandarins, 125 μL on filter paper (730 ppm), 30 min exposure): greatly reduced severity of Pd mold infection | effect on Pd infection ([1]; mandarins, 125 μL on filter paper disc, airtight container with fan, 18 hours, then 6 days): substantially prevented the growth mold | effect on Pd mold ([1]; mandarins, 125 μL on filter paper, 15 minute exposure): little effect on Pd mold | effect on Pd mold ([1]; mandarins, 125 μL on filter paper, 1 hour exposure): greatly reduced severity and incidence of Pd mold | effect on Pd infection ([1]; mandarins, 250 μL on filter paper disc, airtight container with fan, 18 hours, then 6 days): substantially prevented the growth mold | effect on Pd infection / mold growth [1, 4]: substantially prevented | effect on Pd infection ([1]; mandarins, vapor of 500 μL in a Petri dish for 72 hours): substantially prevented Pd infections | reduction of the incidence of Cg mold ([2]; 24 hour AITC exposure as printed): 90% | reduction of the incidence of Cg mold ([2]; Example 9, vapor of 3 mL in a Petri dish for 24 hours, 7 days of incubation): 90% | reduction of the incidence of Cg mold ([2]; Example 9, vapor of 3 mL in a Petri dish for 48 hours, 7 days of incubation): 97% | reduction of the incidence of Cg mold ([2]; Example 9, vapor of 3 mL in a Petri dish for 72 hours, 7 days of incubation): 83% | incidence of Cg mold ([2]; Example 21, 30 minutes vapor of 125 μL on filter paper disc, assessed on day 5): reduced the incidence of Cg mold compared to the untreated samples and the prochloraz treated sample | reduction of the incidence of Cg mold compared to the untreated test group ([2]; vapor of 3 mL in a Petri dish): 97% | reduction of the incidence of Cg mold compared to the prochloraz treated test group ([2]; vapor of 3 mL in a Petri dish, prochloraz 0.1 g/L dip): 70% | inhibition of fungal growth ([3]; mandarins infected with Pi): approximately 100% | effect on Pi infection ([3]; mandarins): substantially prevented

C=CCSSCC=C [DADS, diallyl disulfide]
effect on Pd infection / mold growth [1, 4]: substantially prevents Pd mold growth | reduction of the incidence of Pd mold compared to the untreated samples ([1]; mandarins, exposed for 72 hours to the vapor of 3 mL in a Petri dish): 85% | reduction of the incidence of Cg mold ([2]; Example 8, vapor of 3 mL in a Petri dish for 24 hours): 8% | reduction of the incidence of Cg mold ([2]; Example 8, vapor of 3 mL in a Petri dish for 48 hours): 25% | reduction of the incidence of Cg mold ([2]; Example 8, vapor of 3 mL in a Petri dish for 72 hours): 57% | reduction of the incidence of Cg mold compared to the untreated test group ([2]; vapor of 3 mL in a Petri dish): 60% | reduction of the incidence of Pi mold compared to the untreated/infected test group ([3]; mandarins): 30%
